Columns and labels:
wildtype (Col-0) = test: Lateral root number with exogenous auxin, wildtype; format: in vivo, Arabidopsis; settings: for lateral root number: Col-0, mean ± SE
Description: (§1) FIG. 4. Reduced AtMyb77 expression reduces lateral root growth sensitivity to exogenous auxin. (A) atmyb77-1 T-DNA insertion line and wild-type Arabidopsis Col-0 grown on MS plates with no added auxin have the same number and length of lateral roots. (B) atmyb77-1 has more lateral roots than wildtype Col-0 with 100 nM IAA and (C) 80 nM 2, 4-D. (D) Mean lateral root numbers per primary root under control conditions and with 100 nM IAA and 80 nM 2, 4-D (n=100±SE).
(§2) The effects of exogenous auxin on lateral root growth under control conditions were also tested in wild-type and atmyb77-1 plants. Wildtype Col-0 and atmyb77-1 plants had the same number of lateral roots and the same primary root length under control conditions (FIGS. 4A and D; Table I). […] Primary root length was the same between lines for each treatment.

[1] = system: atmyb77 T-DNA insertion lines (KO); test: Lateral root number with exogenous auxin, atmyb77 T-DNA insertion line; format: in vivo, Arabidopsis; settings: mean ± SE
Description: as §1, §2

[2] = system: AtMyb77 promoter::GUS plants; test: AtMyb77 promoter::GUS reporter expression in roots after auxin; format: in vivo, Arabidopsis; settings: 100 nM IAA, lateral roots, one day
Description: To localize GUS activity, plants were stained with 1 mM X-Gluc solution 4 days after germination (DAG) (Vicente-Agullo et al. 2004) and were de-stained (Malamy and Benfey 1997). The pictures were taken using a Nikon SMZ1500 dissecting microscope (Nikon). Plants were transferred 3-DAG to full nutrient (1.75 mM KCl) or to low K plates (10 μM KCl), and then grown for 7 days before staining. For auxin treatment, plants were transferred 6-DAG to full nutrient plates (no auxin), and to plates containing 100 nM of IAA, or 80 nM of 2, 4-D, and then grown for one day before staining. Incubation time was 60 minutes and protein concentration was calculated with the CB-X kit (GenoTech).
Expression of AtMyb77-promoter driven GUS expression was detected in roots (FIG. 3) and leaves of seedlings. In roots the expression was localized to the inner cell layers of the primary root including the stele (FIGS. 3A and B). At the tip of primary roots expression of GUS was also seen in the root cap cells (FIG. 3A). Throughout the root expression was visible in the vascular tissue. An interesting pattern of expression was observed during the development of lateral roots. Initially when the lateral roots emerge, the reporter gene expression was observed above and below the emerging lateral root primordia in the cortical cells (FIG. 3C). […]

wildtype Col-0 roots = test: Northern blot of auxin regulated genes in roots, wildtype; format: in vivo, Arabidopsis; settings: 20 μM IAA
Description: (§3) FIG. 6. Northern blots of Arabidopsis wildtype Col-0 and T-DNA insertion line atmyb77-1 roots grown in hydroponic conditions for 7 weeks and treated with 20 μM IAA for 0, 6, 30 and 54 hours. Northern blots were probed with 3′ probes from auxin regulated and related genes. Ribosomal RNA loading control shown at bottom.
(§4) Plants were initially grown in nutrient solutions using a rock wool system (Gibeaut et al. 1997) for six weeks at 22° C. with 8 h daylight at 200 μmol.m-2.s-1. Three weeks after germination, plants were transferred to hydroponic tanks containing nutrient medium (Shin et al. 2005) with aeration. Plants were then exposed to a final concentration of 20 μM of IAA (Sigma-Aldrich, St.Louis, Mo.) in the nutrient solutions. After 6 h, 30 h and 54 h roots were harvested. For probes, cDNA fragments were amplified from Arabidopsis cDNA by PCR using primers for the indicated genes as follows: […]
(§5) The amplified cDNAs were labeled with α-^32P-dCTP (Amersham) and Northern blot analyses were performed as described (Shin et al. 2005).

[3] = system: atmyb77-1 T-DNA insertion line roots; test: Northern blot of auxin regulated genes in roots, atmyb77-1; format: in vivo, Arabidopsis; settings: 20 μM IAA; 6, 30, 54 h; atmyb77-1 roots
Description: as §3, §4, §5

MRE element = test: Gel mobility shift assay, MRE; format: binding, Arabidopsis; settings: 100 ng AtMyb77::His, 3x repeat labeled oligo
Description: (§6) An AtMyb77 cDNA fragment was amplified by PCR and cloned into the Ndel and SacI sites of the pET28 vector (Novagen, Madison, Wis., USA). The primer set used for the amplification was 5′-[…]-3′ (SEQ ID NO:37) and 5′-[…]-3′ (SEQ ID NO:38). The resulting in-frame fusion was transformed into Escherichia coli strain BL21 (DE3). Overexpression of AtMyb77::His was induced by 0.5 mM isopropyl-β-D-thiogalactoside at 20° C. for 4 h. Bacteria were pelleted after the induction period, suspended in lysis buffer (50 mM NaH2PO4H2O, 300 mM NaCl, 10 mM Imidazole) and subjected to sonication on ice for 1 min. Bacterial lysates were then centrifuged. The His tagged fusion protein was recovered by affinity chromatography on Nickel-NTA (Sigma-Aldrich, St. Louis, Mo., USA) and the purified protein was used for gel mobility shift assays.
(§7) Both strands of the MRE element ([…]; SEQ ID NO:39) (Hoerena et al. 1998), the MYBcore element ([…]; SEQ ID NO:40) (Larsen 2003), mutated MRE (mMRE) element ([…]; SEQ ID NO:41), mutated MYBcore (mMYBcore) element ([…]; SEQ ID NO:42) and GCC box ([…]; SEQ ID NO:43; Fujimotoa et al., 2000) were synthesized and were end-labeled with […] (Amersham, Pittsburgh, Pa., USA) by T4 polynucleotide kinase (New England Biolabs, Beverly, Mass., USA) at 37° C. for 1 h. […]

MYBcore element = test: Gel mobility shift assay, MYBcore; format: binding, Arabidopsis; settings: 100 ng AtMyb77::His, 3x repeat labeled oligo
Description: as §6, §7

[4] = system: mutated MRE (mMRE) element; test: Gel mobility shift assay, mutated MRE; format: binding; settings: band shift
Description: as §6, §7

[5] = system: mutated MYBcore (mMYBcore) element; test: Gel mobility shift assay, mutated MYBcore; format: binding; settings: band shift
Description: as §6, §7

GCC box = test: Gel mobility shift assay, GCC box; format: binding; settings: band shift
Description: as §6, §7

O=C(O)COc1ccc(Cl)cc1Cl [2,4,-D, 2,4-dichlorophenoxyacetic acid]
lateral root number (wildtype (Col-0); 80 nM 2,4-D): 7.41 ± 0.20 days
lateral root formation, wildtype compared to atmyb77-1 (wildtype (Col-0); seedlings treated with 80 nM 2,4-D): reduced significantly more in the wildtype
lateral root number ([1]; 80 nM 2,4-D): 8.80 ± 0.19b

O=C(O)Cc1c[nH]c2ccccc12 [IAA, indoleacetic acid]
lateral root number (wildtype (Col-0); 100 nM IAA): 10.05 ± 0.55b
lateral root formation, wildtype compared to atmyb77-1 (wildtype (Col-0); seedlings treated with 100 nM IAA): reduced significantly more in the wildtype
lateral root number ([1]; 100 nM IAA): 13.57 ± 0.38c
AtMyb77 promoter driven GUS expression [2]: increase in the expression
expression of IAA19, IAA1, IAA28, AUX1, SAUR-AC1, AXR1, ARF7, AtMyb77 and Tir1 (wildtype Col-0 roots; 6, 30, 54 h vs 0 h, wild-type roots): Clear induction of expression
PIN1 expression (wildtype Col-0 roots; after 54 hours, wildtype roots): not induced
induction of auxin regulated genes [3]: greatly attenuated or abolished

AtMyb77: HIS tagged AtMyb77 R2R3 Myb transcription factor protein (SEQ ID NO:10) purified from E. coli
binding to MRE sequence (band shift) (MRE element): bound
binding to MYBcore sequence (band shift) (MYBcore element): bound
binding to MRE with single nucleotide change [4]: eliminated the interaction and binding
binding to MYBcore with single nucleotide change [5]: eliminated the interaction and binding
binding to ethylene binding element (GCC) (GCC box): no interaction

Source: patent publication US20080196124A1, “Plant Growth Hormone Regulated Transcription Factors and Promoters Thereof” (DONALD DANFORTH PLANT SCIENCE CENTER, priority 2006, published 2008)
